Experimental data as given in US8895079B2, “Combinations of botanical extracts for promoting cardiovascular health” (National Research Council of Canada, priority 2005, dated 2014).
Marks after values point to notes of the source that are not given here.

Legend:
[1] = test system: rats fed a diet containing 2% cholesterol and 28% fat; assay: Example 4: six week rat study, blood total cholesterol levels; format: in vivo, male Sprague-Dawley rats; details: 6 weeks; for T-C: 2% cholesterol 28% fat diet, means±SD, n=10
Protocol: In this example, a controlled, six week animal study was performed in a different animal model. Six randomized groups of 10 male Sprague-Dawley rats were fed isocaloric diets as follows. […] One objective of this example was to determine the effects of each intervention on plasma cholesterol levels in a different animal model. Table 9 summarizes the effect on blood total cholesterol levels (values are means±SD, n=10).

[2] = test system: liver HMG-CoA reductase mRNA; assay: Example 1: liver HMG-CoA reductase mRNA expression, real-time PCR; format: in vivo, Male Golden Syrian hamsters; details: relative expression in reference to a housekeeping gene, Example 1, 4 weeks
Protocol: Experiments were also conducted to determine the effect on the expression of genes associated with cholesterol in the liver and intestine. Total RNA was extracted and mRNA was converted to cDNA. The mRNA expression was measured by real-time PCR with four repeats and calculated as relative expression in reference to internal control of a housekeeping gene for each sample. Table 5 and FIG. 8a summarize the effect of BBRCI and PS alone or in combination on liver HMG-CoA reductase. […] HMG-CoA reductase is a rate-limiting enzyme in cholesterol biosynthesis. […] When a strong action occurs on cholesterol reduction through inhibiting cholesterol absorption, cholesterol biosynthesis is increased as compensatory response to the cholesterol loss due to the reduced absorption. The powerful synergistic action of BBRCI and PS on HMG-CoA reductase mRNA expression implies that the combination of these materials may act synergistically to reduce blood cholesterol, possibly by inhibiting cholesterol absorption.

liver CYP27A1 mRNA = assay: Example 1: liver CYP27A1 mRNA expression, real-time PCR; format: in vivo, Male Golden Syrian hamsters; details: relative expression in reference to a housekeeping gene, Example 1, 4 weeks
Protocol: (§1) Experiments were also conducted to determine the effect on the expression of genes associated with cholesterol in the liver and intestine. Total RNA was extracted and mRNA was converted to cDNA. The mRNA expression was measured by real-time PCR with four repeats and calculated as relative expression in reference to internal control of a housekeeping gene for each sample. Table 5, FIG. 8b and FIG. 8c summarize the effect of BBRCI and PS on the mRNA expression of CYP7A1 and CYP27A1 in the liver. BBRCI and PS alone tended to increase mRNA expression of both genes. CYP7A1 and CYP27A1 are two rate-limiting enzymes controlling bile acid synthesis, which is one mechanism through which the body removes cholesterol by converting it into bile acids. When BBRCI and PS were combined, a synergistic action appeared to happen.

liver CYP7A1 mRNA = assay: Example 1: liver CYP7A1 mRNA expression, real-time PCR; format: in vivo, Male Golden Syrian hamsters; details: relative expression in reference to a housekeeping gene, Example 1, 4 weeks
Protocol: as §1

[3] = test system: hamsters fed an atherogenic control diet; assay: Example 1: liver cholesterol concentration (FIG. 4); format: in vivo, Male Golden Syrian hamsters; details: Example 1, 4 weeks, BBRCI 100 mg/kg·d and/or PS 1% (w/w)
Text: This observation, together with lower liver weight, implies that either BBRCI or PS or combination of either can be used to treat fatty liver.

[4] = test system: hamsters fed an atherogenic control diet; assay: Example 1: four week hamster study, plasma cholesterol and triglyceride levels; format: in vivo, Male Golden Syrian hamsters
Protocol: A controlled, four week animal study was performed to compare and contrast the effects of three interventional strategies on blood cholesterol and triglyceride levels. Four randomized groups of 15 male Golden Syrian hamsters were fed isocaloric diets as follows: • Control a semi-synthetic casein-corn starch-sucrose diet that contained 0.15% (w/w) cholesterol and 5% (w/w) fat • BBRCI control diet containing 100 mg/kg·d of BBRCI • PS control diet containing 1% (w/w) PS • BBRCI+PS control diet containing 100 mg/kg·d BBRCI and 1% (w/w) PS BBRCI and PS were introduced into the diet by blending. The primary endpoint at the end of the study was to determine the effects of each intervention on circulating blood lipids including total cholesterol (T-C), high-density-lipoprotein cholesterol (HDL-C), nonHDL-C (which is indicative of LDL-C levels) and triglyceride (TG) profiles. All lipids were measured by the standard enzymatic method. Male Golden Syrian Hamsters were purchased from Charles River Co. housed individually in cages for two weeks prior to the commencement of the study. During this adjustment period, animals were fed with regular rodent chow diet with free access to both food and water. A total of 60 hamsters were weighed and randomly assigned to one of four groups of 15 animals each. Animals are subjected to a temperature-controlled environment with a 12:12 h light/dark cycle. Each group was fed with one of the four isocaloric experimental diets for a 4 week period. […] During the course of the experiment, animals were weighed weekly and food consumption was determined on a daily basis over the course of the experiment. At the conclusion of the study all animals were anaesthetized with isoflurane and killed by decapitation. Blood samples were collected into tubes containing ethylenediaminetetraacetic acid (EDTA). Red blood cells and plasma were separated and stored at −80° C. until further analysis. Plasma was analyzed for total cholesterol, HDL-C and TG concentrations, for which results are reported below. NonHDL-C was calculated by subtracting HDL-C from total cholesterol. FIGS. 1-3 and Table 2 represent the effects of BBRCI and PS alone or in combination on blood cholesterol and triglyceride levels. Values are means±SD, n=15. Data were analyzed by one-way ANOVA followed by Tukey test if significance was detected. A significant difference was indicated by a p<0.05.

[5] = Example 1, 4 weeks, BBRCI 100 mg/kg·d and/or PS 1% (w/w)
[6] = Example 1, BBRCI 100 mg/kg·d, PS 1% (w/w)
[7] = plasma, 0.15% cholesterol diet, 4 weeks, BBRCI 100 mg/kg·d and/or PS 1% (w/w), means±SD, n=15

## COc1ccc2cc3[n+](cc2c1OC)CCc1cc2c(cc1-3)OCO2 [BBRCI, Berberine chloride]
[1]; BBRCI 100 mg/kg·d by gavage (BBRCl-1) and/or PS 1% (w/w) in diet
  T-C: 102.1 ± 30.6 mg/dL
[1]; BBRCI 200 mg/kg·d by gavage (BBRCl-2), alone or with PS 1% (w/w)
  T-C: 109.1 ± 26.7 mg/dL
[1]; BBRCI 100 mg/kg·d (BBRCl-1) and/or PS 1% (w/w)
  T-C % difference from Control: −6.7%
[1]; BBRCI 200 mg/kg·d (BBRCl-2), alone or with PS 1% (w/w)
  T-C % difference from Control: −0.3%
[2]
  HMG-CoA reductase mRNA expression: 0.98 ± 0.10^b
Liver CYP27A1 mRNA
  CYP27A1 mRNA expression: 1.27 ± 0.31
Liver CYP7A1 mRNA
  CYP7A1 mRNA expression: 1.30 ± 0.66
[3]
  cholesterol concentration in the liver: dramatically reduced cholesterol concentration in the liver
[4]; [5]
  HDL-C % difference from Control: −16.2%
  HDL-C/nonHDL-C % difference from Control: 19%
  T-C % difference from Control: −21.9%
  TG % difference from Control: −3.9%
  nonHDL-C % difference from Control: −28.2%
[4]; [6]
  reduction of T-C relative to control: 22%
  reduction of nonHDL-C relative to control: 28%
[4]; Example 1, relative to control, BBRCI 100 mg/kg·d, PS 1% (w/w)
  reduction of plasma TG levels: 4%
[4]; plasma, 0.15% cholesterol diet, 4 weeks, BBRCI 100 mg/kg·d and/or PS 1% (w/w) in diet, means±SD, n=15
  T-C Concentration: 169 ± 20^b mg/dl
[4]; [7]
  HDL-C Concentration: 100 ± 17^b mg/dl
  TG Concentration: 326 ± 111^a mg/dl
[4]; plasma, calculated by subtracting HDL-C from total cholesterol, 0.15% cholesterol diet, 4 weeks, BBRCI 100 mg/kg·d and/or PS 1% (w/w), n=15
  nonHDL-C Concentration: 66 ± 14^b mg/dl
[4]; ratio, plasma, 0.15% cholesterol diet, 4 weeks, BBRCI 100 mg/kg·d and/or PS 1% (w/w), n=15
  HDL-C/nonHDL-C: 1.60 ± 0.58^b
